Patent publication US20180228780A1, “3-(1H-PYRROLO[2,3-C]PYRIDIN-2-YL)-1H-INDAZOLES AND THERAPEUTIC USES THEREOF” (Samumed, LLC, priority 2015, published 2018)
pEC50: −log10 of the molar value.

Assays:
Assay type in all cases: cell-based
[1] = test system: Primary human fibroblasts derived from IPF patients (LL29 cells); test: Inhibition of the fibrotic process: αSMA staining in TGF-β1-treated LL29 fibroblasts; conditions: Fibroblast; for pEC50: 96 h, LL29 cells, TGF-β1 20 ng/mL, 4 days, % αSMA-positive cells; for inhibition at 10 µM: read-out: percent inhibition at 10 μM
Outline: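 LL29 IPF-patient lung fibroblasts plated in F12 with 1% FBS, treated with TGF-β1 plus compound; TGF-β1/DMSO wells served as controls. After 4 days incubation, SYTOX green (1 μM final) added for 30 min at room temperature; αSMA staining used as fibrosis read-out.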

[2] = test system: Wnt activity (Sp5-Luc reporter, SW480 colon carcinoma cells); test: Screening assay for Wnt activity: Sp5-Luc reporter gene assay in SW480 cells; conditions: Homo sapiens; for pEC50: SW480 Sp5-Luc reporter, overnight incubation; for inhibition at 10 µM: SW480, read-out: percent inhibition at 10 μM
Outline: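 SW480 colon carcinoma cells stably carrying Sp5 promoter (eight TCF/LEF sites)-driven firefly luciferase, plated at 4,000 cells/well in 1% FBS medium and incubated overnight at 37° C. Luminescence normalised to DMSO-only cells; EC50 from four-parameter variable-slope nonlinear regression.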

[3] = test system: SW480 colon cancer cells; test: Cell viability assay (CellTiter-Blue) in SW480 colon cancer cells; conditions: Homo sapiens; for pEC50: 96 h, SW480 cell viability, four days incubation; for inhibition at 10 µM: SW480, read-out: percent inhibition at 10 μM
Outline: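 Fluorescence from resazurin reduced to resorufin by metabolically active cells was the read-out, taken after ~3 h with CellTiter-Blue.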

[4] = test system: primary human mesenchymal stem cells (hMSCs); test: Induction of chondrogenesis in hMSCs (nodule imaging, Rhodamine B / Nile Red); conditions: 6 days; for Emax: relative to TGF-β3 (10 ng/mL) positive control, read-out: Max. Activity as % TGF-β3 activity; for EC50: concentration required to induce 50% levels of chondrogenesis vs TGF-β3, read-out: Conc (nM) of 50% TGF-β3 activity
From the text: Representative compounds were screened using primary human mesenchymal stem cells (hMSCs) to determine their ability to induce chondrogenesis (process by which cartilage is developed).
Primary human mesenchymal stem cells (hMSCs) were purchased from Lonza (Walkersville, Md.) and expanded in Mesenchymal Stem Cell Growth Media (Lonza). Cells between passage 3 and 6 were used for the experiments.
Area of nodules in each well was normalized to the average of 3 DMSO treated wells on the same plate using Excel (Microsoft Inc.). The normalized averages (fold change over DMSO) of 2 or 3 replicate wells for each compound concentration were calculated. Due to solubility limitations of some of the compounds, curve fitting was incomplete leading to inaccurate EC50 determinations.
Using TGF-β3 as a positive control, the concentration of representative compounds required to induce 50% levels of chondrogenesis is reported. In addition, the maximum activity of each compound and the respective dose that each compound reached maximum chondrogenesis activity is reported.

[5] = test system: IL-6 (THP-1 cells); test: IL-6 inhibition in THP-1 monocytes (HTRF); conditions: Homo sapiens; for pEC50: IL-6 inhibition, THP-1 cells, HTRF, 10-point dose-response starting from 10 μM; for inhibition at 10 µM: THP-1, read-out: percentage in parentheses printed under EC50 >10
Outline: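 THP-1 cells serum-reduced (1% FBS, 24 h), plated 5000/well, stimulated with 500 ng/mL […] after 2 h and incubated a further 22 h at 37 °C. Secreted IL-6 quantified by HTRF (665/620 nm ratio), normalized to DMSO; EC50 from four-parameter fit, duplicates.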

Row | Compound | pEC50 [2] | pEC50 [3] | pEC50 [5] | EC50 [4] | pEC50 [1] | Emax [4] | inhibition at 10 µM [3] | inhibition at 10 µM [5] | inhibition at 10 µM [1] | inhibition at 10 µM [2]
1 | CC(C)CC(=O)Nc1cncc(-c2ccc3[nH]nc(-c4cc5c(N6CCCCC6)cncc5[nH]4)c3c2)c1 [Compound 170] | 6.42 | 6.55 | 7.34 | 2700 nM | 6.26 | 113% | – | – | – | –
2 | c1cncc(-c2cncc3[nH]c(-c4n[nH]c5ccc(-c6cncnc6)cc45)cc23)c1 [Compound 111, 3-(4-(pyridin-3-yl)-1H-pyrrolo[2,3-c]pyridin-2-yl)-5-(pyrimidin-5-yl)-1H-indazole] | < 5.00 | < 5.00 | < 5.00 | 2700 nM | < 5.00 | 58% | 7.5% | 42.4% | 46.5% | 14.5%
3 | O=C(Nc1cncc(-c2ccc3[nH]nc(-c4cc5c(-c6cccnc6)cncc5[nH]4)c3c2)c1)c1ccccc1 [Compound 95] | < 5.00 | < 5.00 | 5.77 | 10 nM | < 5.00 | 69% | 22.7% | – | 34.2% | 32.4%
4 | CC(C)C(=O)Nc1cncc(-c2ccc3[nH]nc(-c4cc5c(-c6cccnc6)cncc5[nH]4)c3c2)c1 [Compound 93, N-(5-(3-(4-(Pyridin-3-yl)-1H-pyrrolo[2,3-c]pyridin-2-yl)-1H-indazol-5-yl)pyridin-3-yl)isobutyramide] | 6.59 | 6.23 | 6.61 | – | 6.76 | 34% | – | – | – | –
5 | O=C(Nc1cncc(-c2ccc3[nH]nc(-c4cc5c(-c6cccnc6)cncc5[nH]4)c3c2)c1)C1CCCC1 [Compound 106, N-(5-(3-(4-(Pyridin-3-yl)-1H-pyrrolo[2,3-c]pyridin-2-yl)-1H-indazol-5-yl)pyridin-3-yl)cyclopentanecarboxamide] | 5.86 | 5.69 | 6.68 | – | 5.63 | 45% | – | – | – | –
6 | CN(C)Cc1cncc(-c2ccc3[nH]nc(-c4cc5c(-c6ccncc6)cncc5[nH]4)c3c2)c1 [Compound 125] | 5.98 | 5.66 | 5.94 | – | 5.61 | 18% | – | – | – | –
7 | CC(C)CC(=O)Nc1cncc(-c2ccc3[nH]nc(-c4cc5c(-c6ccncc6)cncc5[nH]4)c3c2)c1 [Compound 114] | 6.06 | < 5.00 | < 5.00 | 30 nM | < 5.00 | 70% | 24.8% | 15.9% | 47% | –
8 | c1cncc(-c2ccc3[nH]nc(-c4cc5c(-c6cccnc6)cncc5[nH]4)c3c2)c1 [Compound 88, 5-(Pyridin-3-yl)-3-(4-(pyridin-3-yl)-1H-pyrrolo[2,3-c]pyridin-2-yl)-1H-indazole] | 6.51 | 6.31 | 6.98 | 100 nM | < 5.00 | 58% | – | – | 0% | –
9 | c1ncc(-c2ccc3[nH]nc(-c4cc5c(N6CCCCC6)cncc5[nH]4)c3c2)cn1 [Compound 195, 3-(4-(Piperidin-1-yl)-1H-pyrrolo[2,3-c]pyridin-2-yl)-5-(pyrimidin-5-yl)-1H-indazole] | 5.76 | 5.54 | 5.25 | – | 5.97 | 38% | – | – | – | –
10 | Fc1cccc(-c2cncc3[nH]c(-c4n[nH]c5ccc(-c6ccccn6)cc45)cc23)c1 [Compound 28, 3-(4-(3-Fluorophenyl)-1H-pyrrolo[2,3-c]pyridin-2-yl)-5-(pyridin-2-yl)-1H-indazole] | 6.17 | 6.45 | 5.62 | – | 6.34 | 26% | – | – | – | –
11 | CN1CCN(c2cncc3[nH]c(-c4n[nH]c5ccc(-c6cncc(CNCc7ccccc7)c6)cc45)cc23)CC1 [Compound 248] | 5.48 | 5.44 | 5.45 | 30 nM | 5.93 | 101% | – | – | – | –
12 | CN1CCN(c2cncc3[nH]c(-c4n[nH]c5ccc(-c6cncc(NC(=O)CC(C)(C)C)c6)cc45)cc23)CC1 [Compound 240, 3,3-Dimethyl-N-(5-(3-(4-(4-methylpiperazin-1-yl)-1H-pyrrolo[2,3-c]pyridin-2-yl)-1H-indazol-5-yl)pyridin-3-yl)butanamide] | 5.46 | 5.35 | 6.30 | – | 5.58 | 31% | – | – | – | –

Now from value to compound, other results behind:

Row | pEC50 [2] | pEC50 [3] | pEC50 [5] | EC50 [4] | Compound | pEC50 [1] | Emax [4] | inhibition at 10 µM [3] | inhibition at 10 µM [5] | inhibition at 10 µM [1] | inhibition at 10 µM [2]
13 | 5.43 | 5.98 | 5.43 | – | CN(C)Cc1cncc(-c2cc(F)c3[nH]nc(-c4cc5c(-c6cccc(F)c6)cncc5[nH]4)c3c2)c1 [Compound 991, 1-(5-(7-Fluoro-3-(4-(3-fluorophenyl)-1H-pyrrolo[2,3-c]pyridin-2-yl)-1H-indazol-5-yl)pyridin-3-yl)-N,N-dimethylmethanamine] | 5.91 | 38% | – | – | – | –
14 | 6.02 | 6.53 | 7.13 | – | CN(C)Cc1cncc(-c2cc3c(-c4cc5c(-c6cccc(F)c6)cncc5[nH]4)n[nH]c3cc2F)c1 [Compound 992, 1-(5-(6-Fluoro-3-(4-(3-fluorophenyl)-1H-pyrrolo[2,3-c]pyridin-2-yl)-1H-indazol-5-yl)pyridin-3-yl)-N,N-dimethylmethanamine] | 6.04 | 21% | – | – | – | –
15 | 5.54 | < 5.00 | < 5.00 | – | Cc1ncc(-c2ccc3[nH]nc(-c4cc5c(-c6ccncc6)cncc5[nH]4)c3c2)n1C [Compound 573, 5-(1,2-Dimethyl-1H-imidazol-5-yl)-3-(4-(pyridin-4-yl)-1H-pyrrolo[2,3-c]pyridin-2-yl)-1H-indazole] | 5.67 | 28% | 30.3% | 11% | – | –
16 | 7.07 | 6.93 | 7.85 | 10 nM | O=C(Nc1cncc(-c2ccc3[nH]nc(-c4cc5c(-c6cccs6)cncc5[nH]4)c3c2)c1)C1CC1 [Compound 356, N-(5-(3-(4-(Thiophen-2-yl)-1H-pyrrolo[2,3-c]pyridin-2-yl)-1H-indazol-5-yl)pyridin-3-yl)cyclopropanecarboxamide] | 7.08 | 156% | – | – | – | –
17 | 5.49 | 5.38 | 5.27 | 2700 nM | Fc1cccc(-c2cncc3[nH]c(-c4n[nH]c5ccc(C6CCNCC6)cc45)cc23)c1 [Compound 505, 3-(4-(3-Fluorophenyl)-1H-pyrrolo[2,3-c]pyridin-2-yl)-5-(piperidin-4-yl)-1H-indazole] | 5.60 | 51% | – | – | – | –
18 | 5.73 | 5.50 | 6.87 | – | c1cc2cc(-c3n[nH]c4ccc(-c5cncc(OCCN6CCCC6)c5)cc34)[nH]c2cn1 [Compound 658, 5-(5-(2-(Pyrrolidin-1-yl)ethoxy)pyridin-3-yl)-3-(1H-pyrrolo[2,3-c]pyridin-2-yl)-1H-indazole] | 6.03 | 45% | – | – | – | –
19 | 5.84 | 6.25 | 6.30 | 300 nM | CN(C)c1cncc(-c2ccc3[nH]nc(-c4cc5c(-c6ccoc6)cncc5[nH]4)c3c2)c1 [Compound 315, 5-(3-(4-(Furan-3-yl)-1H-pyrrolo[2,3-c]pyridin-2-yl)-1H-indazol-5-yl)-N,N-dimethylpyridin-3-amine] | 5.82 | 69% | – | – | – | –
20 | 6.02 | 6.29 | 5.59 | – | COc1cncc(-c2ccc3[nH]nc(-c4cc5c(-c6ccsc6)cncc5[nH]4)c3c2)c1 [Compound 676, 5-(5-Methoxypyridin-3-yl)-3-(4-(thiophen-3-yl)-1H-pyrrolo[2,3-c]pyridin-2-yl)-1H-indazole] | 6.36 | 40% | – | – | – | –
